According to paper PMC11124362, “Metabolism, Disposition, Excretion, and Potential Transporter Inhibition of 7–16, an Improving 5-HT2A Receptor Antagonist and Inverse Agonist for Parkinson’s Disease” (Molecules, 2024):

What was measured:
[1] = Metabolite identification in rat liver microsomes; assay type: in vitro ADME; settings: 7–16 10 µM, liver microsomes 1 mg/mL, NADPH, 37 °C, 60 min
Method: (§1) In accordance with our previous methods, 7–16 (10 µM) was incubated with mouse, rat, dog, monkey, and human liver microsome proteins (1 mg/mL) in 100 mM sodium phosphate buffer (pH 7.4) containing 10 mM magnesium chloride and 2 mM NADPH at 37 °C for 60 min. All samples were prepared in duplicates. The reactions were terminated by adding three times the volume of ice-cold acetonitrile (600 µL) and stored at −20 °C until analysis. Control samples without NADPH and 0-time point samples were included. As a positive control, testosterone (10 µM), which was metabolized to produce the hydroxylation metabolite, was used as a substrate to confirm the activity of the incubation system.
(§2) After pre-treatments, the samples were analyzed by an Acquity UPLC system coupled with a diode array detector (Waters Corporation, Milford, MA, USA) and Q Exactive HRMS (Thermo Electron Corporation, Waltham, MA, USA) (UPLC–UV-Q Exactive HRMS). Samples were separated on an Agilent XDB C18 column (150 × 2.1 mm i.d. 3.5 μm, Agilent Corporation, Santa Clara, CA, USA) at 40 °C by gradient elution with water and acetonitrile containing 0.1% formic acid. The flow rate was 0.40 mL/min. The ultraviolet (UV) detection wavelength was 286 nm. Q Exactive HRMS were operated at positive ion mode (3.5 kV) using a heating electrospray ionization source. Mass calibration was required to be performed before conducting experiments so as to achieve the best mass accuracy and mass calibration should be performed every five days. The metabolites were detected by full MS/dd-MS^2 analysis from m/z 100 to m/z 1000. The resolution of the first-class scan and second-class scan was 70,000 and 17,500, respectively. Thermo Compound Discover software was used to identify expected and unknown metabolites, and we finally proposed the 7–16 metabolic pathways based on the deduced metabolites and relevant drug biotransformation knowledge.

[2] = Metabolite identification in human liver microsomes; assay type: in vitro ADME; settings: 7–16 10 µM, liver microsomes 1 mg/mL, NADPH, 37 °C, 60 min
Method: as §1, §2

[3] = Metabolite identification in dog liver microsomes; assay type: in vitro ADME; settings: 7–16 10 µM, liver microsomes 1 mg/mL, NADPH, 37 °C, 60 min
Method: as §1, §2

[4] = Metabolite identification in mouse liver microsomes; assay type: in vitro ADME; settings: 7–16 10 µM, liver microsomes 1 mg/mL, NADPH, 37 °C, 60 min
Method: as §1, §2

[5] = Excretion and metabolite identification in urine and feces of intact rats; assay type: in vivo, Sprague-Dawley rats; settings: for Dose% Feces, female / Dose% Urine, female: female rats; for Dose% Feces, female / Dose% Urine, female / Dose% Feces, male / Dose% Urine, male: single oral dose [14C]7–16 3 mg/100 µCi/kg; for Dose% Feces, male / Dose% Urine, male: male rats
Method: (§3) In the urine and feces excretion experiment, six rats (3 females and 3 males) were administered a single oral dose of [^14C]7–16 at 3 mg/100 µCi/kg. Urine, feces and cage washing/cleaning solution samples were collected from 0 to 168 h following drug administration at the following time intervals: 0–8, 8–24 h (0–24 h for feces), 24–48, 48–72, 72–96, 96–120, 120–144, and 144–168 h. In the biliary excretion experiment, 8 rats using a bile duct cannula (BDC) (4 females and 4 males) were administered a single oral dose of [^14C]7–16 at 3 mg/100 µCi/kg. Bile, urine, feces, and cage washing solution were collected from before and 0–72 h after oral administration at the following time intervals: 0–4, 4–8 (urine 0–8), 8–24 (feces 0–24), 24–48, and 48–72 h. All samples were collected and refrigerated at −20 °C until determination of the radioactive concentrations by liquid scintillation counter (Perkin Elmer Corporation, Waltham, MA, USA). Urine, feces, and bile samples at each time period were mixed by equal percentages of either volume or weight. After the mixed samples were treated, the radio-profiles and metabolite identification in the bile, urine, and feces samples were carried out by LC-RAM and UPLC-Q Exactive HRMS, and the TRA% of each metabolite in plasma and the percentage of dose (dose%) of each compound in urine, feces, and bile samples were calculated.

[6] = Excretion and metabolite identification in bile duct cannulated (BDC) rats; assay type: in vivo, Sprague-Dawley rats; settings: single oral dose [14C]7–16 3 mg/100 µCi/kg; for Dose% Bile, female: female BDC rats; for Dose% Bile, male: male BDC rats
Method: as §3

[7] = Metabolite identification in rat plasma after oral [14C]7–16; assay type: in vivo, Sprague-Dawley rats; settings: single oral dose [14C]7–16 3 mg/100 µCi/kg, pooled plasma 0.25-24 h; for TRA% Plasma, female: female rats; for TRA% Plasma, male: male rats
Method: The rats received a single oral dose of [^14C]7–16 at 3 mg/100 µCi/kg (3 females and 3 males for each time point). At 0.25, 1, 6, and 24 h after administration, about 0.3 mL of blood was collected into a collection vessel containing K2-EDTA anticoagulant by cardiac puncture, and the plasma samples were acquired after centrifugation at 8000 rpm for 10 min at 4 °C. All samples were stored at −20 °C until analysis. The rat plasma samples at each time point were mixed in accordance with the area under the concentration curve contribution at corresponding time intervals. After the pooled plasma samples were pre-treated, the radio-profiles of plasma samples were detected using Shimadzu LC coupled with a radioactivity monitor (LC-RAM, Scintillation and Luminescence Counter Technology, Perkin Elmer Corporation, Waltham, MA, USA), and the metabolites were identified by UPLC-QE HRMS (Thermo Electron Corporation, Waltham, MA, USA). The percentage of each metabolite based on the total radiation intensity (TRA%) in plasma samples was calculated. The structures of metabolites were identified by the same method used for metabolite identification in the liver microsomes of different species.

[8] = Metabolite identification in monkey liver microsomes; assay type: in vitro ADME; settings: 7–16 10 µM, liver microsomes 1 mg/mL, NADPH, 37 °C, 60 min
Method: as §1, §2

Q: With `CN1CCC(N(Cc2ccc(F)cn2)C(=O)NCc2ccc(O)cc2)CC1` [Compound M372] as the compound, how does the “Relative Abundance, UV Area% Rat” value [1] read?
A: The value was 1.10%.

Q: What about the “Relative Abundance, UV Area% Human” value [2] of the same compound?
A: Its value is 0.60%.

Q: What about the “Relative Abundance, UV Area% Dog” value [3] of the same compound?
A: The value was 1.73%.

Q: And the “Relative Abundance, UV Area% Mouse” value [4]?
A: Its value is 0.61%.

Q: What about the “Dose% Feces, female” value [5] of the same compound?
A: Its value is 4.97%.

Q: What about the “Dose% Urine, female” value [5] of the same compound?
A: The value was 4.34%.

Q: And the “Dose% Feces, male” value [5]?
A: Its value is 5.42%.

Q: And the “Dose% Urine, male” value [5]?
A: Its value is 5.75%.

Q: What about the “Dose% Bile, female” value [6] of the same compound?
A: The value was 0.41%.

Q: And the “Dose% Bile, male” value [6]?
A: Its value is 0.83%.

Q: And the “TRA% Plasma, female” value [7]?
A: Its value is 1.11%.

Q: What about the “TRA% Plasma, male” value [7] of the same compound?
A: Its value is 2.50%.

Q: What about the “Relative Abundance, UV Area% Monkey” value [8] of the same compound?
A: Its value is 2.52%.

Q: With `O=C(NCc1ccc(OCC(F)(F)F)cc1)N(Cc1ccc(F)cn1)C1CCNCC1` [Compound M440] as the compound, how does the “Relative Abundance, UV Area% Rat” value [1] read?
A: The value was 1.29%.

Q: What about the “Relative Abundance, UV Area% Human” value [2] of the same compound?
A: Its value is 0.78%.

Q: What about the “Relative Abundance, UV Area% Dog” value [3] of the same compound?
A: Its value is 0.47%.

Q: And the “Relative Abundance, UV Area% Mouse” value [4]?
A: The value was 0.39%.

Q: What about the “Dose% Feces, female” value [5] of the same compound?
A: The value was 21.1%.

Q: What about the “Dose% Urine, female” value [5] of the same compound?
A: The value was 2.66%.

Q: And the “Dose% Feces, male” value [5]?
A: Its value is 24.2%.

Q: What about the “Dose% Urine, male” value [5] of the same compound?
A: The value was 5.77%.

Q: And the “Dose% Bile, female” value [6]?
A: The value was 2.71%.

Q: And the “Dose% Bile, male” value [6]?
A: Its value is 3.83%.

Q: And the “TRA% Plasma, female” value [7]?
A: Its value is 1.40%.

Q: And the “TRA% Plasma, male” value [7]?
A: The value was 3.70%.

Q: What about the “Relative Abundance, UV Area% Monkey” value [8] of the same compound?
A: The value was 1.73%.

Q: Which “Dose% Feces, female” value [5] does the source give for `CN1CCC(N(Cc2ccc(F)cn2)C(=O)N[14CH2]c2ccc(OCC(F)(F)F)cc2)CC1` [[^14C]7–16] here?
A: The value was 16.8%.

Q: And the “Dose% Urine, female” value [5]?
A: The value was 23.6%.

Q: And the “recovery of radioactivity within the first 24 h, percent of dose” value ([5]; intact rats, first 24 h post-administration)?
A: Its value is 76.8%.

Q: What about the “Dose% Feces, male” value [5] of the same compound?
A: Its value is 5.29%.

Q: What about the “Dose% Urine, male” value [5] of the same compound?
A: Its value is 9.79%.

Q: And the “Dose% Bile, female” value [6]?
A: Its value is 0.76%.

Q: What about the “Dose% Bile, male” value [6] of the same compound?
A: Its value is 0.53%.

Q: And the “TRA% Plasma, female” value [7]?
A: The value was 81.9%.

Q: And the “TRA% Plasma, male” value [7]?
A: The value was 57.3%.
